Measurements published in article PMC9897767, “Assessments of CYP‑inhibition‑based drug–drug interaction between vonoprazan and poziotinib in vitro and in vivo” (Pharmaceutical Biology, 2023).
Like-named read-outs stand apart in the source and are kept apart here. One block for each compound: values may come before it.

What was measured:
[1] = Pharmacokinetics of vonoprazan and metabolite M-I in rats with and without poziotinib pretreatment; assay type: in vivo, Sprague-Dawley (SD) rats; details: vonoprazan; for CL/F / Cmax / Tmax / half-life / MRT last / MRT inf / Vd/F: male, Sprague-Dawley, rat, serum, po, 10 mg/kg; for CL/F: 10 mg/kg gavage, read-out: CLz/F (converted); for MRT last: read-out: MRT(0-t); for MRT inf: read-out: MRT(0-∞); for Vd/F: read-out: Vz/F
Method: Twelve healthy male SD rats were randomly divided into two groups. The poziotinib group was given 5 mg/kg poziotinib by gavage every day for 7 days, and rats in the control group only received equal amounts of 0.5% CMC-Na solution in the pre-treatment time. Then animals in the poziotinib group and the control group were fasted for 12 h. On Day 8, the poziotinib group was given poziotinib (5 mg/kg) by gavage, and vonoprazan (10 mg/kg) was given 30 min later, while the control group was only given vonoprazan (10 mg/kg) by gavage. Tail venous blood (300 µL) was collected at 0.083, 0.25, 0.5, 1, 2, 3, 4, 6, 12, and 24 h after the administration of vonoprazan, and then the blood was centrifuged at 4,000 rpm, and 4 °C for 10 min. The serum was collected and stored at −80 °C. After thawing at room temperature, 100 μL of the serum sample was removed and 200 μL of acetonitrile containing diazepam (500 ng/mL) was then added to precipitate proteins. After vortexing, 150 μL of supernatant was removed and centrifuged at 13,000 rpm for 5 min. Then, 2 μL of sample was used for the detection of vonoprazan and its main metabolite M-I by UPLC-MS/MS.
DAS (version 3.2.8; The People’s Hospital of Lishui) was used to fit and calculate the pharmacokinetic parameters of vonoprazan and its metabolite M-I, which include peak time (Tmax), maximum plasma concentration (Cmax), elimination half-life (T1/2), area under the drug-time curve (AUC) and clearance rate (CLz/F). SPSS (version 25.0, IBM, USA) was used for the data processing. Student’s t-test was used to compare the normal distribution of the data, and the Mann–Whitney U test was used for the nonnormal distribution of the data. *p < 0.05 indicates a significant difference compared to the control group and **p < 0.001 indicates an extremely significant difference compared to the control group.
ACQUITY I-Class UPLC and Waters XEVO TQD MS (Milford, MA, USA) were used for the detection of vonoprazan and M-I with an ACQUITY UPLC BEH C18 chromatographic column (50 × 2.1 mm, 1.7 μm) at 40 °C. […] The injection volume of the sample was 2 μL. The scanning method was multiple reaction monitoring (MRM) with detection in positive ion mode and an ESI + ion source. Other mass spectrometry parameters were as follows: capillary voltage 2.0 kV, ion source temperature 150 °C, dissolvent temperature 500 °C, argon flow rate 0.15 mL/min, cone hole gas flow 50 L/h, solvent gas flow 1000 L/h. The precursor ion and product ion were m/z 346.04→314.97 for vonoprazan, m/z 347.50→205.00 for M-I, and m/z 285.10→193.10 for internal standard (IS), diazepam.

[2] = Michaelis-Menten kinetics of vonoprazan in rat liver microsomes; assay type: in vitro ADME; details: pH 7.4, vonoprazan as substrate
Method: Rat liver microsomes (RLMs) were prepared according to the previously reported differential centrifugation method (Eriksson [1978]; Wang et al. [2018]), and the concentration of total protein in the RLM was determined to be 28 mg/mL by the BCA protein quantitative method. Then, a 200 μL incubation system was established, which consisted of 5 μg RLM, 100 mM phosphate buffer (pH 7.4), 10 μM vonoprazan (close to its Km), and a series gradient concentration of poziotinib (100, 50, 10, 5, 1, 0.1, 0.01 μM). The mixture was preincubated at 37 °C for 5 min, and NADPH (1 mM) was then added to start the reaction after vortexing. […] Vonoprazan and its metabolite M-I were detected by UPLC-MS/MS according to the previously reported method (Shen et al. [2020]). […]
To better understand the inhibitory mechanism of poziotinib on vonoprazan, a series of gradient concentrations of vonoprazan were used in the reaction, which included 1/4-, 1/2-, 1-, and 2-times the Km value. […] The above mentioned UPLC-MS/MS method was used for the quantification of the vonoprazan metabolite M-I. Ki and αKi values were calculated, and the inhibitory mechanism was analyzed using a primary Lineweaver-Burk diagram, Dixon diagram, and secondary Lineweaver-Burk diagram by GraphPad Prism 9.0.

[3] = design: method as in Suzuki et al. ([2021]); details: kidney transplant recipients, after switching from rabeprazole to vonoprazan coadministration; ref Suzuki et al. ([2021]); cited from earlier work
[4] = system: metabolism of vonoprazan in rat liver microsomes; test: Inhibition of vonoprazan metabolism by poziotinib in rat liver microsomes; assay type: in vitro ADME
Method: Rat liver microsomes (RLMs) were prepared according to the previously reported differential centrifugation method (Eriksson [1978]; Wang et al. [2018]), and the concentration of total protein in the RLM was determined to be 28 mg/mL by the BCA protein quantitative method. Then, a 200 μL incubation system was established, which consisted of 5 μg RLM, 100 mM phosphate buffer (pH 7.4), 10 μM vonoprazan (close to its Km), and a series gradient concentration of poziotinib (100, 50, 10, 5, 1, 0.1, 0.01 μM). The mixture was preincubated at 37 °C for 5 min, and NADPH (1 mM) was then added to start the reaction after vortexing. The mixture was placed at 37 °C in a water bath for 30 min with shaking, and 200 μL acetonitrile was added to terminate the reaction and precipitate the protein. Diazepam-acetonitrile solution was then added accurately to serve as the internal standard. After vortexing, the mixture was centrifuged at 12,000 rpm for 10 min and the supernatant was transferred to the sample bottle for further separation. Vonoprazan and its metabolite M-I were detected by UPLC-MS/MS according to the previously reported method (Shen et al. [2020]). The nonlinear regression equation was fitted with GraphPad Prism 9.0 software to calculate the IC50 value of poziotinib.
To better understand the inhibitory mechanism of poziotinib on vonoprazan, a series of gradient concentrations of vonoprazan were used in the reaction, which included 1/4-, 1/2-, 1-, and 2-times the Km value. Similarly, concentrations of 0, 1/4-, 1/2-, 1-, and 2-times the IC50 of poziotinib were also included in the experiment. The above mentioned UPLC-MS/MS method was used for the quantification of the vonoprazan metabolite M-I. Ki and αKi values were calculated, and the inhibitory mechanism was analyzed using a primary Lineweaver-Burk diagram, Dixon diagram, and secondary Lineweaver-Burk diagram by GraphPad Prism 9.0.

[5] = oral 10 mg/kg, control group (no poziotinib)
[6] = oral 10 mg/kg, poziotinib group (5 mg/kg oral pretreatment)
[7] = oral 10 mg/kg, poziotinib 5 mg/kg pretreatment

CL/F ([1]; control group): 2710 mL/min/kg
CL/F ([1]; poziotinib pretreatment 5 mg/kg): 431 mL/min/kg
Cmax [1, 5]: 5.69 ± 3.73 ng/mL
Tmax [1, 5]: 0.63 ± 0.31 h
half-life [1, 5]: 1.25 ± 0.77 h
MRT last [1, 5]: 2.29 ± 0.36 h
MRT inf [1, 5]: 2.29 ± 0.36 h
Vd/F [1, 5]: 298 ± 191 L/kg
Cmax [1, 6]: 15.4 ± 4.98 ng/mL
Tmax [1, 6]: 1.92 ± 2.06 h
half-life [1, 6]: 2.84 ± 1.44 h
MRT last [1, 6]: 5.26 ± 1.77 h
MRT inf [1, 6]: 5.51 ± 2.06 h
Vd/F [1, 6]: 90.5 ± 27.3 L/kg
AUC(0-T) increase, poziotinib group vs control group [1, 7]: 6.02 fold
AUC(0-∞) increase, poziotinib group vs control group [1, 7]: 6.11 fold
CLz/F reduction, poziotinib group vs control group [1, 7]: 84%
Cmax increase, poziotinib group vs control group [1, 7]: 2.7 fold
MRT(0-T) increase, poziotinib group vs control group [1, 7]: 2.30 fold
MRT(0-∞) increase, poziotinib group vs control group [1, 7]: 2.41 fold
T1/2 increase, poziotinib group vs control group [1, 7]: 2.2 fold
Tmax increase, poziotinib group vs control group [1, 7]: 3.0 fold
Vz/F reduction, poziotinib group vs control group [1, 7]: 70%
Km at 30 min [2]: 14.3 µM
SMILES: CNCc1cc(-c2ccccc2F)n(S(=O)(=O)c2cccnc2)c1 [vonoprazan]

SMILES: C=CC[C@@H]1/C=C(\C)C[C@H](C)C[C@H](OC)[C@H]2O[C@@](O)(C(=O)C(=O)N3CCCC[C@H]3C(=O)O[C@H](/C(C)=C/[C@@H]3CC[C@@H](O)[C@H](OC)C3)[C@H](C)[C@@H](O)CC1=O)[C@H](C)C[C@@H]2OC [tacrolimus]
increase of blood concentration of tacrolimus [3]: 65.8%

Ki ([4]; Lineweaver-Burk, slope of primary plot, read-out: inhibitory constant Ki): 0.574 µM
IC50 at 30 min ([4]; pH 7.4, probe vonoprazan 10 μM (metabolite M-I measured), 10 μM vonoprazan, NADPH 1 mM, 37 °C 30 min): 10.6 µM
SMILES: C=CC(=O)N1CCC(Oc2cc3c(Nc4ccc(Cl)c(Cl)c4F)ncnc3cc2OC)CC1 [poziotinib]
inhibition mechanism ([4]; Lineweaver-Burk plot): mixed model of noncompetitive and uncompetitive inhibition
